{"source": "patent US10967078B2", "about": "“Radiolabelled mGluR2 PET ligands” (Janssen Pharmaceutica NV, priority 2014, dated 2021)", "key": {"mGluR2 [1]": {"target": "T1, mGluR2 (Mus musculus, UniProt Q14BI2)", "T1 construct": "horizontal sections of mGluR2 KO and WT mouse brain and of normal female Wistar rat brain; from tissue; host or cells: mouse brain sections (WT and mGluR2 KO), 20 µm", "T1 sequence (Q14BI2 19-872)": "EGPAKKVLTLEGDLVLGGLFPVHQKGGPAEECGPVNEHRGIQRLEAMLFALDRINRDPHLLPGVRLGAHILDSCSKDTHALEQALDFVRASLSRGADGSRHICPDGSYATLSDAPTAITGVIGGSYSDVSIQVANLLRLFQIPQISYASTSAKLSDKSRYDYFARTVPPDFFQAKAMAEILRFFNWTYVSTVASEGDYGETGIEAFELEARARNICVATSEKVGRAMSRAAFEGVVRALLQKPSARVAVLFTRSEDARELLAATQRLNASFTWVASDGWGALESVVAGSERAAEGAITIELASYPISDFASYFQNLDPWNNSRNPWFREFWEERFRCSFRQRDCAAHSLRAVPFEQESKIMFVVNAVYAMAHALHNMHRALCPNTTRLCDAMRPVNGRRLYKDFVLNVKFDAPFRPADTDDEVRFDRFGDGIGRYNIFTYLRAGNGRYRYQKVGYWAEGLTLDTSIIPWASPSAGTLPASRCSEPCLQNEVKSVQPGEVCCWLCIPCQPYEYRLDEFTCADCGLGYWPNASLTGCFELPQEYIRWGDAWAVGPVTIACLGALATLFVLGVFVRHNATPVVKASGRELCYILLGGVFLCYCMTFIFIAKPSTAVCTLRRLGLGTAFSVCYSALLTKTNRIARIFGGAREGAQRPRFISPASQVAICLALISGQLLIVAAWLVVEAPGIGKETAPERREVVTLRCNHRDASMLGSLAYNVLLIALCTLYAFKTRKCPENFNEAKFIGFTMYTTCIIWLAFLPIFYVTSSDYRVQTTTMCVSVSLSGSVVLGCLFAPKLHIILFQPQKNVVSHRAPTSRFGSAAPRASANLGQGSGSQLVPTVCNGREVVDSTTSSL", "assay": "In vitro autoradiography binding on mGluR2 KO and WT mouse brain sections", "description": "(§1) In vitro autoradiography studies were performed on horizontal sections of mGluR2 KO and WT mouse brain and of normal female Wistar rat brain (20 μm). The sections were preincubated in 50 mM Tris-HCl (MgCl2 2 mM, CaCl2 2 mM; pH 7.0) for 10 min (two times) at room temperature and dried. Next, the brain sections were incubated with tracer [^11C]-2, [^11C]-5, [^11C]-4, [^11C]-1 or [^18F]-3 diluted in the same Tris-HCl buffer as used for the preincubation additionally containing 0.1% BSA or with this tracer solution in the presence of 10 μM Co. No. 2 or Co. No. 1. The mouse brain sections were incubated with 17 kBq of carbon-11 labeled tracer and 1.7 kBq of fluorine-18 labeled tracer. For the rat brain sections this was 44 kBq of carbon-11 labeled tracer and 0.44 kBq of fluorine-18 labeled tracer. After 30 min of incubation, the brain sections were washed three times for 5 min in ice-cold Tris-HCl 50 mM ((MgCl2 2 mM, CaCl2 2 mM; pH 7.0+0.1% BSA buffer). After a quick dip in purified ice-cold water, the slides were dried. Autoradiograms were obtained by exposing the slides overnight to a high-performance phosphor storage screen (super-resolution screen; Perkin Elmer, Waltham, USA). The screens were read using a Cyclone Plus system (Perkin Elmer) and analysed using Optiquant software (Perkin Elmer). The radioactivity concentration in the autoradiograms was expressed in digital light units (DLU)/mm^2.\n(§2) To obtain additional information on the specificity of the tracer binding to mGluR2, in vitro autoradiography binding studies were performed on mGluR2 KO and WT mouse brain sections and on normal rat brain sections in presence or absence of a high concentration of mGluR2 NAM compounds (Co. No. 1 or Co. No. 2)."}, "mGluR2 [2]": {"target": "T2, mGluR2 (Rattus norvegicus, UniProt P31421)", "T2 construct": "horizontal sections of mGluR2 KO and WT mouse brain and of normal female Wistar rat brain; from tissue; host or cells: normal female Wistar rat brain sections, 20 µm", "T2 sequence (P31421 19-872)": "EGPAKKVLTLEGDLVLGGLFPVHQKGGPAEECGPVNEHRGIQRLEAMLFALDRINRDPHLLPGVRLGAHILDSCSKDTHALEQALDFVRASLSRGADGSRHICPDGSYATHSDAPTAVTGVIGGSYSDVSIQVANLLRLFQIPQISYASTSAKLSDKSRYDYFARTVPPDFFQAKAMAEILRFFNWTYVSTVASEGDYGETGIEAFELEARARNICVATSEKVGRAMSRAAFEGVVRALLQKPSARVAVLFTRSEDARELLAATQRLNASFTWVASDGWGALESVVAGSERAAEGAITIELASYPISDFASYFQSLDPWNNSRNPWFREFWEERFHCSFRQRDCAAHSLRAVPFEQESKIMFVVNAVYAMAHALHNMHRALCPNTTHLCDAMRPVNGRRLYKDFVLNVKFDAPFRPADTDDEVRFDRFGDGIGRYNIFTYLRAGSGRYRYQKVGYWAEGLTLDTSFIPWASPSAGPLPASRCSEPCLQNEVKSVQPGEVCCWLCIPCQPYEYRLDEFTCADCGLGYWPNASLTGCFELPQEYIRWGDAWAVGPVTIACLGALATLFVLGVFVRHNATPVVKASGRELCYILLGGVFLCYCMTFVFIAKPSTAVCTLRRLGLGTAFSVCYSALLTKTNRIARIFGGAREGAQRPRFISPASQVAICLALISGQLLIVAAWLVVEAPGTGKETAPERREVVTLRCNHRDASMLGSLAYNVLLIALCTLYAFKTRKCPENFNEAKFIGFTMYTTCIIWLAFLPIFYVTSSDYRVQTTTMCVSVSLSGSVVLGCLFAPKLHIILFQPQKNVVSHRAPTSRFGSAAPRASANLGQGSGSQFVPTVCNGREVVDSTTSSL", "assay": "In vitro autoradiography binding on normal female Wistar rat brain sections", "description": "as §1, §2"}, "[3]": {"details": "WT mouse cortex, block with 10 μM Co. No. 1"}, "[4]": {"details": "WT mouse striatum, block with 10 μM Co. No. 1"}, "[5]": {"details": "self-blocking or blocking with Co. No. 1 (10 μM)"}}}
{"smiles": "C[C@H]1CN(c2ccc(C(F)(F)F)cc2)C(=O)c2c(-c3ccnc(N[11CH3])c3)cnn21", "note": "[[^11C]-2]", "values": [{"measurement": "Cortex WT (TB)/cortex WT (block Co. No. 1)", "setting": "mGluR2 [1]; [3]", "result": "~6.7"}, {"measurement": "spec binding, cortex WT", "setting": "mGluR2 [1]; [3]", "result": "(~85% spec"}, {"measurement": "Striatum WT (TB)/striatum WT (block Co. No. 1)", "setting": "mGluR2 [1]; [4]", "result": "~8.3"}, {"measurement": "spec binding, striatum WT", "setting": "mGluR2 [1]; [4]", "result": "(~88% spec"}, {"measurement": "difference in tracer binding to WT and mGluR2 KO mouse brain sections", "setting": "mGluR2 [1]; in words", "result": "significant difference"}, {"measurement": "Cortex WT (TB)/Cortex KO (TB)", "setting": "mGluR2 [1]; total binding ratio, WT versus mGluR2 KO mouse brain sections, cortex", "result": "~8.1"}, {"measurement": "Striatum WT (TB)/Striatum KO (TB)", "setting": "mGluR2 [1]; total binding ratio, WT versus mGluR2 KO mouse brain sections, striatum", "result": "~4.8"}, {"measurement": "total binding to normal rat brain sections", "setting": "mGluR2 [2]; in words", "result": "high binding"}, {"measurement": "decrease in binding in rat cortex", "setting": "mGluR2 [2]; [5]", "result": "~91", "unit": "%"}, {"measurement": "decrease in binding in rat striatum", "setting": "mGluR2 [2]; [5]", "result": "~78", "unit": "%"}]}
